Assays:
Assay type in all cases: cell-based
[1] = tested on: AML cell line OCI-AML3; test: Cell viability (CellTiterGlo, 3 days), single agents and combination, in OCI-AML3; details: Homo sapiens, OCI-AML-3, 72 h; OCI-AML3, single agent, 3 days incubation, CTG signal
[2] = tested on: AML cell line MV4;11; test: Cell viability (CellTiterGlo, 3 days), single agents and combination, in MV4;11; details: Homo sapiens, 72 h; MV4;11, single agent, 3 days incubation, CTG signal
[3] = tested on: AML cell line EOL-1; test: Cell viability (CellTiterGlo, 3 days), single agents and combination, in EOL-1; details: Homo sapiens, EOL1, 72 h; EOL-1, single agent, 3 days incubation, CTG signal
[4] = tested on: AML cell line HL-60; test: Cell viability (CellTiterGlo, 3 days), single agents and combination, in HL-60; details: Homo sapiens, 72 h; HL-60, single agent, 3 days incubation, CTG signal

Row | SMILES | IC50 [1] [nM] | IC50 [2] [nM] | IC50 [3] [nM] | IC50 [4] [nM]
1 | Nc1ncn([C@@H]2O[C@H](CO)[C@@H](O)[C@H]2O)c(=O)n1 [5-azacitidine, azacitidine] | 7100 | 689 | 187 | > 10000
2 | Cc1c(N(C(=O)c2cc(-c3cc(Cl)ccc3C(=O)N3Cc4ccccc4C[C@H]3CN3CCOCC3)n(C)c2C)c2ccc(O)cc2)cc(C#N)n1C [Compound A, 5-(5-chloro-2-{[(3S)-3-(morpholin-4-ylmethyl)-3,4-dihydroisoquinolin-2(1H)-yl]carbonyl}phenyl)-N-(5-cyano-1,2-dimethyl-1H-pyrrol-3-yl)-N-(4-hydroxyphenyl)-1,2-dimethyl-1H-pyrrole-3-carboxamide] | 5690 | 3 | 18 | 3100

From patent publication US20230270748A1, “COMBINATION OF A BCL-2 INHIBITOR AND A HYPOMETHYLATING AGENT FOR TREATING CANCERS, USES AND PHARMACEUTICAL COMPOSITIONS THEREOF” (LES LABORATOIRES SERVIER, priority 2020, published 2023)
